Results on 5 compounds are retold here after PubChem BioAssay (NCI).

Some test systems named below: A498 renal; A549 NSCLC; ACHN renal; CAKI-1 renal; DLD-1 colon; MALME-3M melanoma; OVCAR-3 ovarian; RPMI-8226 leukemia; SF-295 CNS; SF-539 CNS; SK-MEL-28 melanoma; SK-MEL-5 melanoma; SN12C renal; SNB-19 CNS; U251 CNS; HT29 colon; HCT-15 colon.
Common to all, as to assay: inhibition of tumour cell growth, NCI panel, 48 h

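Briefly, cells in 96-well plates were exposed to five compound concentrations for 48 h, and endpoints were estimated by linear interpolation. Here, GI50 denotes the concentration required for 50% inhibition of growth. TGI is the concentration that stops growth completely.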

Turning to `N=S(=O)(c1ccccc1)c1ccccc1`, the TGI with A498 renal, with A549 NSCLC, in the assay with ACHN renal, in the assay on CAKI-1 renal, with DLD-1 colon and in the assay on MALME-3M melanoma was above 100 µM throughout. Further, the TGI with OVCAR-3 ovarian, with RPMI-8226 leukemia, in the assay with SF-295 CNS, in the assay with SF-539 CNS, in the assay on SK-MEL-28 melanoma and in the assay on SK-MEL-5 melanoma was above 100 µM each time. The TGI in the assay with SN12C renal, with SNB-19 CNS and with U251 CNS was above 100 µM each time.
Consider `O=C(/C=C/c1ccc2c(c1)OCO2)NCCc1ccco1`, for which the TGI in the assay with A549 NSCLC, in the assay on ACHN renal, in the assay with CAKI-1 renal, with HT29 colon, with MALME-3M melanoma and in the assay with OVCAR-3 ovarian was above 100 µM each time. For the same compound, the TGI in the assay on RPMI-8226 leukemia is 99.1 µM; in the assay on SF-295 CNS, above 100 µM; with SF-539 CNS, above 100 µM; in the assay with SK-MEL-28 melanoma, above 100 µM; with SK-MEL-5 melanoma it was above 100 µM; in the assay on SN12C renal, above 100 µM. Besides, the TGI in the assay on SNB-19 CNS and in the assay with U251 CNS was above 100 µM each time.
Take `C[N+](C)(C)CCOC(=O)/C=C/c1cnc[nH]1`: the TGI in the assay on A498 renal, in the assay with A549 NSCLC, in the assay with CAKI-1 renal, with DLD-1 colon, in the assay on HCT-15 colon and in the assay with HT29 colon was above 500 µM in each case. For the same compound, the TGI in the assay on MALME-3M melanoma, in the assay on OVCAR-3 ovarian, in the assay with RPMI-8226 leukemia, with SF-295 CNS, in the assay on SF-539 CNS and with SK-MEL-28 melanoma was above 500 µM each time. Moreover, the TGI with SK-MEL-5 melanoma, in the assay with SN12C renal, in the assay with SNB-19 CNS and with U251 CNS was above 500 µM throughout.
Turning to `COc1cccc2c1C(=O)c1c(O)c3c(c(O)c1C2=O)C[C@@](O)(C(=O)CN1CCOCC1)C[C@@H]3OC1CC(N)C(O)C(C)O1` (stereo partly drawn), the TGI is 31.1 µM with A498 renal; 48.6 µM with A549 NSCLC; above 53.8 µM in the assay on CAKI-1 renal; above 74.4 µM with DLD-1 colon; 77.6 µM with HCT-15 colon; 14.2 µM with MALME-3M melanoma. The TGI is 57.4 µM with OVCAR-3 ovarian; 43.2 µM in the assay with RPMI-8226 leukemia; 39.3 µM in the assay on SF-295 CNS; 23.6 µM with SF-539 CNS; 29.1 µM with SK-MEL-28 melanoma; 15.7 µM in the assay with SK-MEL-5 melanoma. Also, the TGI with SN12C renal, in the assay on SNB-19 CNS and with U251 CNS was above 100 µM throughout. In addition, the figures for the GI50 with CAKI-1 renal, in the assay with HT29 colon and in the assay with OVCAR-3 ovarian were 2.61 µM, 3.87 µM and 10.6 µM, respectively.
As to `O=C(O)CN1CCCC(Cc2c[nH]c3ccccc23)C1` (stereo not drawn), the TGI in the assay on A549 NSCLC, with ACHN renal, in the assay with CAKI-1 renal, in the assay with HCT-15 colon, in the assay on MALME-3M melanoma and with OVCAR-3 ovarian was above 100 µM in each case. The TGI in the assay on SF-295 CNS, in the assay with SF-539 CNS, in the assay on SK-MEL-28 melanoma and in the assay on SK-MEL-5 melanoma was above 100 µM each time.
